In patent US5037830A, “Novel thiouracyl derivatives, pharmaceutical compositions containing them and process for preparing same” (Richter Gedeon Vegyeszeti Gyar RT, priority 1989, dated 1991):
Read-outs that look alike come from different tables or passages of the source.

Experiments:
[1] = system: reserpine-induced gastric ulcer; test: Inhibition of the reserpine-induced gastric ulcer; assay type: in vivo, female OFA rats; conditions: for ED50: Rattus norvegicus, po, 18 h, p.o., reserpine 5 mg/kg s.c.
Experimental: After being starved for 24 hours, female OFA rats were orally treated with the compounds to be tested and then subcutaneously (s.c.) with 5 mg/kg of reserpine after 1 hour. After 18 hours the animals were killed and their stomach were examined under microscope. The evaluation was performed as described under the preceding paragraph 1.

[2] = system: spontaneous gastric acid secretion; test: Gastric acid secretion-inhibiting effect according to Shay's method; assay type: in vivo, female OFA rats; conditions: for Gastric acid, change / Gastric juice, change: vs control; for Gastric acid, treated: titration with 0.1N NaOH
Experimental: After being starved for 24 hours, female OFA rats weighing 130 to 160 g were orally treated with the compounds to be tested. (15 animals were used for each dose.) One hour later laparotomy and pylorus ligature were carried out under ether anaesthesia according to Shay [Gastroenterology 5, 43 (1945)]. After 5 hours the animals were killed by an overdose of ether, their stomaches were excised and the volume and acid content of the gastric juice were determined. The acid was measured by titration with 0.1N NaOH, by using Topfer's indicator.

[3] = system: gastric ulcer induced by Aspirin plus stress; test: Inhibition of the gastric ulcer induced by Aspirin plus stress; assay type: in vivo, female RG-Wistar rats
Experimental: After being starved for 24 hours, female RG-Wistar rats weighing 120 to 150 g were orally treated with the compound to be tested and then orally with Aspirin. The animals were sensitized by the aspirin pretreatment and a strong ulceration was induced in the glandular part of stomach of the animals by a subsequent stress (fastening, ducking in water of 22° C. temperature). The ulceration was evaluated as score values from 0 to 2.

[4] = system: gastric ulcer after pylorus ligature; test: Gastric ulcer-inhibiting effect in rats operated according to Shay's method; assay type: in vivo, female OFA rats; conditions: for ED50: Rattus norvegicus, po, 18 h, p.o.
Experimental: Female OFA rats starved for 24 hours weighing 150 to 160 g were used. (The animals were allowed to drink water ad libitum). The animals were orally treated with the substance to be tested and after 1 hour laparotomy and pylorus ligature according to Shay [Gastroenterology 5, 43 (1945)] were performed under ether anaesthesia. After 18 hours the number and size of ulcers formed on the membranaceous part of the stomach were examined under microscope. The evaluation was made in relation to the control group and the ED50 values were determined. The sizes of the ulcers were expressed as score values from 0.5 to 32.

[5] = system: pentagastrin-induced gastric acid secretion; test: Inhibition of the pentagastrin-induced gastric acid secretion in rats; assay type: in vivo, male OFA rats; conditions: for Gastric acid, change / Gastric juice, change: vs control; for Gastric juice, treated: pentagastrin 0.05 mg/kg/hour;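 on Gastric acid, treated: dosed 30 min before a 5 hour experiment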
Experimental: (§1) After being starved for 24 hours, male OFA rats weighing 250 to 320 g were anaestethized by 40% urethane (0.5 ml/100 g), then the trachea and jugular vein were cannulated (10 animals were used for each dose). A glass cannula was inserted to the stomach from the direction of the pylorus. The stomach was washed with lukewarm water and then purified by air blown through. The gastric acid secretion was induced by an infusion of histamine (5 mg/kg/hour), or pentagastrin (0.05 mg/kg/hour) or carbachol (0.01 mg/kg/hour), respectively. […]

[6] = system: histamine-induced gastric acid secretion; test: Inhibition of the histamine-induced gastric acid secretion in rats; assay type: in vivo, male OFA rats; conditions: for Gastric acid, change / Gastric juice, change: vs control; for Gastric juice, treated: histamine 5 mg/kg/hour;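 on Gastric acid, treated: dosed 30 min before a 5 hour experiment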
Experimental: as §1

Acute toxicity, rat = conditions: in vivo
Experimental: (§2) These investigations were carried out in OFI mice and OFA rats after starving for 24 hours. Ten animals were used for each dose. The number of doses was 3 or 4.

[7] = system: carbachol-induced gastric acid secretion; test: Inhibition of the carbachol-induced gastric acid secretion in rats; assay type: in vivo, male OFA rats; conditions: for Gastric acid, change / Gastric juice, change: vs control; for Gastric juice, treated: carbachol 0.01 mg/kg/hour;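 on Gastric acid, treated: dosed 30 min before a 5 hour experiment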
Experimental: as §1

Acute toxicity, mouse = conditions: in vivo
Experimental: as §2

[8] = system: indomethacin-induced gastric ulcer; test: Inhibition of the indomethacin-induced gastric ulcer; assay type: in vivo, female RG-Wistar rats
Experimental: After being starved for 24 hours, female RG-Wistar rats were orally treated with the compounds to be tested and then orally with 20 mg/kg of indomethacin after 30 minutes. The evaluation was carried out in relation to the control group and the ED50 values were determined.

[9] = read-out: ED50 related to the number of ulcers
[10] = read-out: ED50 related to the occurrance of ulcers
[11] = read-out: ED50 related to the severity of ulcers

Cc1cc(=O)[nH]c(SCc2ccccc2N(C)C)n1 [Example 1, 2-(2-dimethylaminobenzyl)thio-6-methyl-4(3H)-pyrimidinone]
ED50 [1, 9]: 16 mg/kg | ED50 [1, 10]: 18 mg/kg | ED50 [1, 11]: 15 mg/kg | ulcer inhibition, in words ([1]; compared with reference drugs): significantly stronger inhibited | Gastric juice, treated ([2]; 10 mg/kg p.o.): 6.76 mL | Gastric acid, change ([2]; 10 mg/kg p.o.): -28.2% | Gastric juice, change ([2]; 10 mg/kg p.o.): -10.6% | Gastric acid, treated ([2]; 10 mg/kg p.o.): 2.45 mL | Gastric juice, treated ([2]; 20 mg/kg p.o.): 6.15 mL | Gastric acid, change ([2]; 20 mg/kg p.o.): -65.1% | Gastric juice, change ([2]; 20 mg/kg p.o.): -12.9% | Gastric acid, treated ([2]; 20 mg/kg p.o.): 1.17 mL | Gastric juice, treated ([2]; 40 mg/kg p.o.): 4.51 mL | Gastric acid, change ([2]; 40 mg/kg p.o.): -92.4% | Gastric juice, change ([2]; 40 mg/kg p.o.): -34.4% | Gastric acid, treated ([2]; 40 mg/kg p.o.): 0.22 mL | inhibitor effect on gastric acid secretion, in words ([2]; compared with reference drugs): equiactive to the NC-1300 reference drug | ED50 ([2]; po, gastric acid, Shay rat): 15 mg/kg | ED50 ([3]; Rattus norvegicus, po, Aspirin plus stress): 7.3 mg/kg | ulcer inhibition, in words ([3]; compared with reference drugs): significantly stronger inhibited | ED50 [4, 9]: 3.3 mg/kg | ED50 [4, 10]: 9 mg/kg | ED50 [4, 11]: 3.7 mg/kg | ulcer inhibition, in words ([4]; compared with reference drugs): significantly stronger inhibited | Gastric acid, treated ([5]; 6.25 mg/kg i.p.): 1.79 mL | Gastric acid, change ([5]; 6.25 mg/kg i.p.): -34% | Gastric juice, change ([5]; 6.25 mg/kg i.p.): -31% | Gastric juice, treated ([5]; 6.25 mg/kg i.p.): 1.26 mL | Gastric acid, treated ([5]; 12.5 mg/kg i.p.): 1.21 mL | Gastric acid, change ([5]; 12.5 mg/kg i.p.): -55% | Gastric juice, change ([5]; 12.5 mg/kg i.p.): -51% | Gastric juice, treated ([5]; 12.5 mg/kg i.p.): 0.90 mL | Gastric acid, treated ([5]; 25 mg/kg i.p.): 0.51 mL | Gastric acid, change ([5]; 25 mg/kg i.p.): -81% | Gastric juice, change ([5]; 25 mg/kg i.p.): -78% | Gastric juice, treated ([5]; 25 mg/kg i.p.): 0.41 mL | ED50 ([5]; Rattus norvegicus, ip, pentagastrin-induced, dose column i.p.): 9.5 mg/kg | Gastric acid, treated ([6]; 6.25 mg/kg i.p.): 3.41 mL | Gastric acid, change ([6]; 6.25 mg/kg i.p.): -42% | Gastric juice, change ([6]; 6.25 mg/kg i.p.): -44% | Gastric juice, treated ([6]; 6.25 mg/kg i.p.): 2.14 mL | Gastric acid, treated ([6]; 12.5 mg/kg i.p.): 1.90 mL | Gastric acid, change ([6]; 12.5 mg/kg i.p.): -68% | Gastric juice, change ([6]; 12.5 mg/kg i.p.): -64% | Gastric juice, treated ([6]; 12.5 mg/kg i.p.): 1.38 mL | Gastric acid, treated ([6]; 25 mg/kg i.p.): 0.66 mL | Gastric acid, change ([6]; 25 mg/kg i.p.): -89% | Gastric juice, change ([6]; 25 mg/kg i.p.): -87% | Gastric juice, treated ([6]; 25 mg/kg i.p.): 0.49 mL | ED50 ([6]; Rattus norvegicus, ip, histamine-induced, dose column i.p.): 6.8 mg/kg | LD50 (Acute toxicity, rat; ip, female rat): 430 mg/kg | LD50 (Acute toxicity, rat; ip, male rat): 450 mg/kg | LD50 (Acute toxicity, rat; po, female rat, precision restricted by solubility): 2400 mg/kg | LD50 (Acute toxicity, rat; po, male rat, precision restricted by solubility): > 3000 mg/kg | Gastric acid, treated ([7]; 12.5 mg/kg i.p.): 2.14 mL | Gastric acid, change ([7]; 12.5 mg/kg i.p.): -22% | Gastric juice, change ([7]; 12.5 mg/kg i.p.): -20% | Gastric juice, treated ([7]; 12.5 mg/kg i.p.): 1.65 mL | Gastric acid, treated ([7]; 20 mg/kg i.p.): 0.90 mL | Gastric acid, change ([7]; 20 mg/kg i.p.): -67% | Gastric juice, change ([7]; 20 mg/kg i.p.): -66% | Gastric juice, treated ([7]; 20 mg/kg i.p.): 0.71 mL | Gastric acid, treated ([7]; 25 mg/kg i.p.): 0.37 mL | Gastric acid, change ([7]; 25 mg/kg i.p.): -87% | Gastric juice, change ([7]; 25 mg/kg i.p.): -83% | Gastric juice, treated ([7]; 25 mg/kg i.p.): 0.34 mL | ED50 ([7]; Rattus norvegicus, ip, carbachol-induced, dose column i.p.): 16.5 mg/kg | LD50 (Acute toxicity, mouse; ip, female mouse): 365 mg/kg | LD50 (Acute toxicity, mouse; ip, male mouse): 360 mg/kg | LD50 (Acute toxicity, mouse; po, female mouse, precision restricted by solubility): > 1000 mg/kg | LD50 (Acute toxicity, mouse; po, male mouse, precision restricted by solubility): > 1000 mg/kg | ED50 ([8]; Rattus norvegicus, po, indomethacin 20 mg/kg orally): 8.2 mg/kg | ulcer inhibition, in words ([8]; compared with reference drugs): significantly stronger inhibited
